This note sets out measurements from paper PMC9596378, “Discovery and molecular basis of subtype-selective cyclophilin inhibitors” (Nature Chemical Biology, 2022).

Where two headings read alike, the source gives them in different places.

One assay addresses T1, CypB (Homo sapiens, UniProt P23284).
T1 construct: PPIB (UniProtKB Entry P23284: residues 34–216); His6 with TEV site (2BT vector leader) (N); made in house; host or cells: E. coli BL21(DE3)
Nature of the assay: biochemical. The method in brief:
(§1)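 Steps: cyclophilin plus compound 5 min at 2–3 °C; α-chymotrypsin added, 5 min more; Suc-AAPF-AMC substrate in LiCl/trifluoroethanol injected and fluorescence followed 330 s. Finals: 5 nM enzyme, 25 µM chymotrypsin, 5 µM substrate, 0.25% DMSO.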

For the next assay, the target named is T2, CypC (Homo sapiens, UniProt P45877).
T2 construct: PPIC (UniProtKB Entry P45877: residues 24–212); host or cells: E. coli BL21(DE3)
T2 sequence (P45877 24-212): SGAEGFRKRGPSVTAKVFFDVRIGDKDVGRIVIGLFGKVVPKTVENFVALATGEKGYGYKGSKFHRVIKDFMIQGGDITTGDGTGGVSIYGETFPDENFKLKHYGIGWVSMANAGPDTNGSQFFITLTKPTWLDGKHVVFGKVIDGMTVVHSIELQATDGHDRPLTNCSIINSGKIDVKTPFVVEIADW
Nature of the assay: Chymotrypsin coupled prolyl-isomerase assay. Format: biochemical. A digest of the protocol: as §1

In a further assay the target is T3, CypH (Homo sapiens, UniProt O43447).
T3 construct: PPIH (UniProtKB Entry O43447: residues 1–177); His6 with TEV site (2BT vector leader) (N); made in house; host or cells: E. coli BL21(DE3)
T3 sequence (O43447 whole entry, the tested form may be a part): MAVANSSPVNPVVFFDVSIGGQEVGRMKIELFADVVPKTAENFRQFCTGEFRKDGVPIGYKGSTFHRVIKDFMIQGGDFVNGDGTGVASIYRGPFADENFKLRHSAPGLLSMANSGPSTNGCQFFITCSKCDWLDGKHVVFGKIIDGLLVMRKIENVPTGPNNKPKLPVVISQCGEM
Nature of the assay: Chymotrypsin coupled prolyl-isomerase assay. Format: biochemical. The method in brief:
as §1

The target of another assay is T4, CypA (Homo sapiens, UniProt P62937).
T4 construct: PPIA (UniProtKB Entry P62937: residues 1–165); made in house; host or cells: E. coli BL21(DE3)
T4 sequence (P62937 whole entry, the tested form may be a part): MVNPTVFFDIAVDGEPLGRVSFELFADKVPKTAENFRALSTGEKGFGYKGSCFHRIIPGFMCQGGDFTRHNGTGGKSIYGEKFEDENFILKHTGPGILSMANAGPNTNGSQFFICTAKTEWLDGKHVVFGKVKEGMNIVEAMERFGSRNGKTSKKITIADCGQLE
Description: Chymotrypsin coupled prolyl-isomerase assay. It counts as biochemical. A digest of the protocol: as §1

In a further assay the target is T5, CypE (Homo sapiens, UniProt Q9UNP9).
T5 construct: PPIE (UniProtKB Entry Q9UNP9: residues 131–301); host or cells: E. coli BL21(DE3)
T5 sequence (Q9UNP9 131-301): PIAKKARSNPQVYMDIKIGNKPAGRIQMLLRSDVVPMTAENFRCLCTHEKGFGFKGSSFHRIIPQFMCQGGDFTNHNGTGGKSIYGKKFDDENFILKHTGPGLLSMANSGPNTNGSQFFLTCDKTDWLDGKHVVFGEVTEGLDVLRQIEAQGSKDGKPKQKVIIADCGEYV
Nature of the assay: Chymotrypsin coupled prolyl-isomerase assay. It counts as biochemical. A digest of the protocol:
as §1

The target in the next assay is T6, CypG (Homo sapiens, UniProt Q13427).
T6 construct: PPIG (UniProtKB Entry Q13427: residues 1–179); His6 with thrombin site (pET28a LIC leader) (N); host or cells: E. coli BL21(DE3)
T6 sequence (Q13427 1-179): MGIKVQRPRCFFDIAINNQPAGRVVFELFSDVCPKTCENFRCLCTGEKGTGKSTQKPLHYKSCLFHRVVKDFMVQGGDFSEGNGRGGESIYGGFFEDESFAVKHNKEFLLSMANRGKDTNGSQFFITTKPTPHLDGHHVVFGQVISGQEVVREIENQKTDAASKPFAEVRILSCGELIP
Description: Chymotrypsin coupled prolyl-isomerase assay. It counts as biochemical. The method in brief: as §1

The target in another assay is T7, NKTR (Homo sapiens, UniProt P30414).
T7 construct: NKTR (UniProtKB Entry P30414: residues 7–179); host or cells: E. coli BL21(DE3)
T7 sequence (P30414 7-179): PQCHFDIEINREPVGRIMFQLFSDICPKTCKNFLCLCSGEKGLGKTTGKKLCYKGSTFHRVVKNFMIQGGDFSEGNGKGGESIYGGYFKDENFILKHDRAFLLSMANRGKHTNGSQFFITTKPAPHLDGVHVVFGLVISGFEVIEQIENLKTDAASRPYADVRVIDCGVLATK
Nature of the assay: Chymotrypsin coupled prolyl-isomerase assay. Format: biochemical.

The next assay concerns the target Cyp40 (Homo sapiens, UniProt Q08752). Nature of the assay: Chymotrypsin coupled prolyl-isomerase assay. The method in brief: as §1
The mark [1] stands for this setting: wild-type CypB, read-out: Wild-Type Cyclophilin Prolyl Isomerase Inhibition IC50 Values, CypB.
Where [2] appears, read: wild-type CypC, read-out: Wild-Type Cyclophilin Prolyl Isomerase Inhibition IC50 Values, CypC.
Setting [3] is: prolyl-isomerase inhibition, 5 nM cyclophilin, read-out: IC50 CypH.
The mark [4] stands for this setting: wild-type CypH, read-out: Wild-Type Cyclophilin Prolyl Isomerase Inhibition IC50 Values, CypH.
[5] abbreviates: prolyl-isomerase inhibition, 5 nM cyclophilin, read-out: IC50 CypA.
Where [6] appears, read: wild-type CypA, read-out: Wild-Type Cyclophilin Prolyl Isomerase Inhibition IC50 Values, CypA.
[7] abbreviates: wild-type CypE, read-out: Wild-Type Cyclophilin Prolyl Isomerase Inhibition IC50 Values, CypE.
Setting [8] is: wild-type CypG, read-out: Wild-Type Cyclophilin Prolyl Isomerase Inhibition IC50 Values, CypG.
[9] abbreviates: prolyl-isomerase inhibition, 5 nM cyclophilin, read-out: IC50 NKTR.
Setting [10] is: wild-type NKTR, read-out: Wild-Type Cyclophilin Prolyl Isomerase Inhibition IC50 Values, NKTR.
[11] abbreviates: Wild-Type Cyclophilin Prolyl Isomerase Inhibition IC50 Values, Cyp40, wild-type Cyp40.
[12] abbreviates: prolyl-isomerase inhibition, 5 nM cyclophilin, read-out: IC50 CypC.
Where [13] appears, read: prolyl-isomerase inhibition, 5 nM cyclophilin, read-out: IC50 CypG.

Cyp40, sequence (Q08752 1-183): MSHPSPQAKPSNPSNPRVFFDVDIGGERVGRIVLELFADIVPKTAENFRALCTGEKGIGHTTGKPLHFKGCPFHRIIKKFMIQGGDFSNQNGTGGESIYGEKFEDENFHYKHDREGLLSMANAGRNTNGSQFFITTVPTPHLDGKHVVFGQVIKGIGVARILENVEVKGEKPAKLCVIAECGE
T1 sequence (P23284 34-216): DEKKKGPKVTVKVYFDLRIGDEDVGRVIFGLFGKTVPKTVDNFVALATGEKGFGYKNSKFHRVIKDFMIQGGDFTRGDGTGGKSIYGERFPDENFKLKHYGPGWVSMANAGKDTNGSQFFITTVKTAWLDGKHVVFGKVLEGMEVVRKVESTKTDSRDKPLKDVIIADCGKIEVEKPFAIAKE
Description for NKTR: Adapting a previously described protocol[51], with an Agilent Bravo Velocity 11 with a 384ST head, 90 µL assay buffer (25 mM HEPES pH 7.3, 100 mM NaCl, 0.01% Triton X-100) containing 5.28 nM cyclophilin was added into a flat, clear-bottom, black 384-well plate pre-chilled in a Corning CoolBox at 2–3 °C. Five microliters of compound pre-dissolved in 5% DMSO/assay buffer was then added to appropriate wells and incubated at 2–3 °C for 5 min. Five microliters of 0.5 mM α-chymotrypsin from bovine pancreas (Type II, lyophilized powder, Millipore-Sigma) in 20% 1 mM HCl/Assay Buffer was then added to each well and incubated at 2–3 °C for 5 min. […] Using the internal liquid handling system of the FLIPR, 1 µL 0.5 mM Suc-AAPF-AMC (Chymotrypsin Substrate II, Millipore-Sigma) dissolved in 0.55 M LiCl/2,2,2-trifluoroethanol was added to each well, which was then mixed for 5 s, followed by immediate fluorescence measurements every 1 s for 330 s using a 360–380 nm excitation LED module and a 400–460 nm emission filter. Final concentrations of the plate include 5 nM cyclophilin, 0.25% DMSO, 25 µM α-chymotrypsin, 5 µM Suc-AAPF-AMC. Raw fluorescence data was analyzed by non-linear regression analysis with Prism v.9 by fitting one-phase association curves to each well. Analyses were halted after the calculated maximum fluorescent value owing to observed fluorescent bleaching during the sustained fluorescent plateau. Rate constants calculated for each well (s^−1) were then normalized to substrate only (no prolyl-isomerase) and enzyme + substrate only controls. IC50 values were calculated as the value at which 50% inhibition was achieved on the non-linear regression fitted curve of each compound.

Usually IC50 stands for the midpoint of a concentration-inhibition curve. `NCCOCCNC(=O)C1CCNC(=O)C=CC(=O)N2CCCC(C2)C(=O)NC(Cc2ccco2)C(=O)NCc2ccccc2CC(=O)N1` (stereo not drawn) [JOMBt]: the IC50 on CypB (setting [1]) was 5000 nM; on CypC (setting [2]), 23 µM; on CypH (setting [3]) it was about 100 µM; at CypH (setting [4]) it was 100 µM; at CypA (setting [5]), about 60 µM; at CypA (setting [6]), 60 µM. Further, the half-inhibitory concentration (IC50) is 23000 nM on CypE (setting [7]); 16 µM at CypG (setting [8]); about 60 µM on NKTR (setting [9]); 60 µM at NKTR (setting [10]); 19 µM at Cyp40 (setting [11]).
Take `NCCCc1ccc(-c2ccc(C[C@@H]3NC(=O)[C@]4(Cc5ccccc5)CCCN(C4)C(=O)/C=C/C(=O)NCC[C@@H](C(=O)NCCOCCN)NC(=O)Cc4ccccc4CNC3=O)cc2)cc1` [Compound B32]: the IC50 is 3000 nM on CypB (setting [1]); 1.2 µM on CypC (setting [2]); over 50 µM on CypH (setting [4]); 8 µM on CypA (setting [6]); 7000 nM at CypE (setting [7]); 11 µM on CypG (setting [8]). The IC50 on NKTR (setting [10]) was over 50 µM; against Cyp40 (setting [11]) it was 4 µM.
On to `C[N+]1=C(C=CC=CC=C2N(CCCCCC(=O)NCCNC(=O)C3CCNC(=O)C=CC(=O)N4CCCC(Cc5ccccc5)(C4)C(=O)NC(Cc4ccc(-c5ccc(CC(C(=O)O)C(=O)O)cc5)cc4)C(=O)NCc4ccccc4CC(=O)N3)c3ccccc3C2(C)C)C(C)(C)c2ccccc21` (stereo not drawn) [Compound B52-Cy5], for which the IC50 at CypB (setting [1]) is 400 nM; on CypC (setting [12]), about 5 µM; on CypC (setting [2]) it was 5 µM; on CypH (setting [3]) it was about 10 µM; at CypH (setting [4]) it was 10 µM; on CypA (setting [6]), 0.19 µM. For the same molecule, the IC50 on CypE (setting [7]) is 1000 nM; on CypG (setting [13]) it was about 10 µM; on CypG (setting [8]) it was 10 µM; on NKTR (setting [9]), about 7 µM; at NKTR (setting [10]), 7 µM; at Cyp40 (read-out: Wild-Type Cyclophilin Prolyl Isomerase Inhibition IC50 Values, Cyp40, wild-type Cyp40) it was over 10 µM.
For `NCCOCCNC(=O)[C@@H]1CCNC(=O)/C=C/C(=O)N2CCC[C@](Cc3ccccc3)(C2)C(=O)N[C@@H](Cc2ccc(-c3ccc(C(CC(=O)O)CC(=O)O)cc3)cc2)C(=O)NCc2ccccc2CC(=O)N1` [Compound B53], the IC50 on CypB (CypB (comparator for CypB E121S), read-out: Mutant Cyclophilin Prolyl Isomerase Inhibition IC50 Values, CypB) is 500 nM; on CypB (Independent replicate 2, read-out: IC50 CypB), 1600 ± 600 nM; at CypB (Independent replicate 3, read-out: IC50 CypB), 1100 ± 500 nM; on CypB (Independent replicate 4, read-out: IC50 CypB), 1300 ± 800 nM; on CypB (prolyl-isomerase inhibition, 5 nM cyclophilin, read-out: IC50 CypB), 1100 nM; on CypB (prolyl-isomerase inhibition, read-out: IC50 CypB) it was 1100 nM. Besides, the half-inhibitory concentration (IC50) at CypB (setting [1]) was 1100 nM; on CypC (Independent replicate 1, read-out: IC50 CypC), over 50 µM; at CypC (Independent replicate 2, read-out: IC50 CypC) it was over 50 µM; at CypC (Independent replicate 3, read-out: IC50 CypC) it was over 50 µM; on CypC (Independent replicate 4, read-out: IC50 CypC) it was over 50 µM; on CypC (setting [12]), over 50 µM. Also, the IC50 was over 50 µM on CypC (setting [2]); over 50 µM on CypH (Independent replicate 1, read-out: IC50 CypH); over 50 µM on CypH (Independent replicate 2, read-out: IC50 CypH); over 50 µM at CypH (Independent replicate 3, read-out: IC50 CypH); over 50 µM on CypH (Independent replicate 4, read-out: IC50 CypH); over 50 µM at CypH (setting [3]). In addition, the IC50 is over 50 µM on CypH (setting [4]); 3 ± 2 µM on CypA (Independent replicate 1, read-out: IC50 CypA); 3 ± 1 µM on CypA (Independent replicate 2, read-out: IC50 CypA); 4 ± 2 µM at CypA (Independent replicate 3, read-out: IC50 CypA); 4 ± 1 µM at CypA (Independent replicate 4, read-out: IC50 CypA); 3.4 µM on CypA (setting [5]). Besides, the IC50 on CypE (Independent replicate 1, read-out: IC50 CypE) was 600 ± 300 nM; on CypE (Independent replicate 2, read-out: IC50 CypE) it was 900 ± 300 nM; on CypE (Independent replicate 3, read-out: IC50 CypE), 600 ± 200 nM; on CypE (Independent replicate 4, read-out: IC50 CypE) it was 1100 ± 600 nM; on CypE (setting [7]), 800 nM; at CypG (Independent replicate 1, read-out: IC50 CypG) it was about 50 µM. In addition, the IC50 was over 50 µM at CypG (Independent replicate 2, read-out: IC50 CypG); over 50 µM on CypG (Independent replicate 3, read-out: IC50 CypG); over 50 µM on CypG (Independent replicate 4, read-out: IC50 CypG); over 50 µM on CypG (setting [13]); over 50 µM on CypG (setting [8]); over 50 µM at NKTR (Independent replicate 1, read-out: IC50 NKTR). In addition, the IC50 at NKTR (Independent replicate 2, read-out: IC50 NKTR) was over 50 µM; on NKTR (Independent replicate 3, read-out: IC50 NKTR), over 50 µM; on NKTR (Independent replicate 4, read-out: IC50 NKTR), over 50 µM; at NKTR (setting [9]) it was over 50 µM; at NKTR (setting [10]), over 50 µM; against Cyp40 (IC50 Cyp40, Independent replicate 1), over 50 µM. For the same molecule, the IC50 against Cyp40 (IC50 Cyp40, Independent replicate 2) is over 50 µM; on Cyp40 (IC50 Cyp40, Independent replicate 3), over 50 µM; against Cyp40 (IC50 Cyp40, Independent replicate 4), over 50 µM; against Cyp40 (IC50 Cyp40, prolyl-isomerase inhibition, 5 nM cyclophilin), over 50 µM; against Cyp40 (setting [11]), over 50 µM.
